Measurements: ChEMBL document CHEMBL1125635, “Effect of hydroxyl group configuration in hydroxyethylamine dipeptide isosteres on HIV protease inhibition. Evidence for multiple binding modes” (J Med Chem, 1991)

Assays:
[1] = target: T1, Human immunodeficiency virus type 1 protease (Human immunodeficiency virus 1, UniProt Q72874); experiment: In vitro concentration required to inhibit 50% activity of HIV protease was measured (exp 2); type: functional
[2] = target: T1, Human immunodeficiency virus type 1 protease; experiment: In vitro concentration required to inhibit 50% activity of HIV protease was measured; type: functional
[3] = target: T1, Human immunodeficiency virus type 1 protease; experiment: In vitro binding affinity against HIV protease was measured

Row | SMILES | IC50 [1] [nM] | IC50 [2] [nM] | Ki [3] [nM]
1 | CC(C)(C)OC(=O)[C@@H]1CCCN1C[C@@H](O)[C@H](Cc1ccccc1)NC(=O)[C@H](CC(N)=O)NC(=O)OCc1ccccc1 | 300 | 450 | –
2 | CC(C)(C)OC(=O)[C@@H]1CCCN1C[C@H](O)[C@H](Cc1ccccc1)NC(=O)[C@H](CC(N)=O)NC(=O)OCc1ccccc1 | 140 | 51 | –
3 | CC(=O)N[C@@H](CO)C(=O)N[C@@H](CC(C)C)C(=O)N[C@@H](CC(N)=O)C(=O)N[C@@H](Cc1ccccc1)[C@H](O)CN1CCC[C@H]1C(=O)OC(C)(C)C | – | 14 | –
4 | CC[C@H](C)[C@H](NC(=O)[C@@H]1CCCN1C[C@@H](O)[C@H](Cc1ccccc1)NC(=O)[C@H](CC(N)=O)NC(=O)OC(C)(C)C)C(=O)N[C@H](C(=O)OC)C(C)C | – | 850 | –
5 | CC[C@H](C)[C@H](NC(=O)[C@@H]1CCCN1C[C@H](O)[C@H](Cc1ccccc1)NC(=O)[C@H](CC(N)=O)NC(=O)OC(C)(C)C)C(=O)N[C@H](C(=O)OC)C(C)C | – | 16 | –
6 | CC(=O)N[C@@H](CO)C(=O)N[C@@H](CC(C)C)C(=O)N[C@@H](CC(N)=O)C(=O)N[C@@H](Cc1ccccc1)[C@@H](O)CN1CCC[C@H]1C(=O)OC(C)(C)C | – | 14 | –
7 | CC[C@H](C)[C@H](NC(=O)[C@@H]1CCCN1C[C@H](O)[C@H](Cc1ccccc1)NC(=O)[C@H](CC(N)=O)NC(=O)OCc1ccccc1)C(=O)N[C@@H](Cc1ccccc1)C(=O)OC | – | 4 | –
8 | CC[C@H](C)[C@H](NC(=O)[C@@H]1CCCN1C[C@H](O)[C@H](Cc1ccccc1)NC(=O)[C@H](CC(N)=O)NC(=O)c1ccc2ccccc2n1)C(=O)N[C@@H](Cc1ccccc1)C(=O)OC | – | 2.3 | –
9 | CC[C@H](C)[C@H](NC(=O)[C@@H]1CCCN1CC(O)[C@H](Cc1ccccc1)NC(=O)[C@H](CC(N)=O)NC(=O)[C@H](CC(C)C)NC(=O)[C@H](CO)NC(C)=O)C(=O)N[C@H](C(=O)OC)C(C)C (mixture of isomers) | – | 9 | 0.6
10 | CC[C@H](C)[C@H](NC(=O)[C@@H]1CCCN1C[C@H](O)[C@H](Cc1ccccc1)NC(=O)[C@H](CC(N)=O)NC(=O)[C@H](CC(C)C)NC(=O)[C@H](CO)NC(C)=O)C(=O)N[C@H](C(=O)OC)C(C)C (stereo in doubt; 1R) | – | 65 | 20
11 | CC[C@H](C)[C@H](NC(=O)[C@@H]1CCCN1C[C@H](O)[C@H](Cc1ccccc1)NC(=O)[C@H](CC(N)=O)NC(=O)[C@H](CC(C)C)NC(=O)[C@H](CO)NC(C)=O)C(=O)N[C@H](C(=O)OC)C(C)C (stereo in doubt; 1S) | – | 3.4 | 0.24
